From patent US9884863B2, “STAT3 inhibitor” (Board of Regents, The University of Texas System, priority 2013, dated 2018)
pIC50: −log10 of the molar value.

What was measured:
[1] = tested on: Panc-1; test: MTS cell proliferation assay, Panc-1; format: cell-based, human; conditions: Homo sapiens, PANC-1, 72 h, read-out: IC50 Panc-1 (Table 4)
Procedure, shortened: (§1)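 Cells seeded at 2×10^3 cells/well and exposed 72 h to DMSO or 0.01–100 μM STAT3 inhibitor, quadruplicate wells per concentration. Proliferation read by MTS reduction, OD 550 nm after 1 h at 37 °C.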

[2] = tested on: MDA-MB-231 and MDA-MB-468 cells; test: Colony formation assay; format: cell-based, human; conditions: 15 days, starting at 0.625 μM
Protocol: Colony Formation Assay: MDA-MB-468 and MDA-MB-231 cells were seeded in 6-well plates with a density of 800-3000 cells/well, respectively. […] The culture media with the compounds were changed every 72 h. After two weeks, the wells were washed twice with PBS buffer and 2 mL of 0.01% crystal violet staining buffer was added and incubated for 10 min. The wells were then washed with PBS for 5 min for three times, and allowed to dry. Photographs were then taken and the density of the entire culture well area was digitally measured using the GelCount™ instrument (Oxford Optronix, UK). Experiments were performed in triplicate and the density data were analyzed with one-way ANOVA using GraphPad Prizm 6 software. Error bars represent standard deviation.

[3] = tested on: STAT3 promoter activity in MDA-MB-231 cells; test: Transient transfection and dual luciferase reporter assay (pSTAT3-Luc); format: cell-based, human; conditions: 24 h
Protocol: MDA-MB-231 cells were pre-treated with niclosamide or 11 at different concentrations for 24 h. The STAT3 promoter activity in MDA-MB-231 cells was determined after transient transfecting with pSTAT3-Luc vector.
Transient Transfection and Dual Luciferase Reporter Assays. MBA-MB-231 cells were seeded in 24-well plate at a density of 5×10^4 cells/well in RPMI-1640 medium containing 10% FBS and 1% penicillin-streptomycin. Transient transfections were performed 4 h after plating, using the method described previously (Rees, D. C. et al., 2004; Shen, Q. et al., 2008). Total amount of DNA for transfections was 0.5 μg/well, including pSTAT3-Luc (95%, obtained from Panomics, Cat# LR0077) and internal control vector renilla (5%, from Promega, Madison, Wis., USA). 5 h after transfection, the cells were treated with compound […] for 24 h, then reporter activity was evaluated using dual luciferase reporter assay kit (Promega, Madison, Wis., USA) on an Omega™ Microplate Luminometer (BMG LABTECH Inc., NC, USA). Relative luciferase units were the ratio of the absolute activity of firefly luciferase to that of renilla luciferase. Experiments were conducted with triplicates and results are representatives of at least 3 independent experiments.

[4] = format: in vivo; conditions: oral gavage 14 days; HJC0152 25 mg/kg, niclosamide 75 mg/kg
Protocol: Female nude mice at 4 to 6 wk of age were obtained from MDACC ERO facility. The mice were maintained in a barrier unit with 12 hours light-dark switch room and all materials were autoclaved. Freshly harvested MDA-MB-231 cells (2.5×10^6 cells per mouse, resuspended in 100 μl PBS) were injected into the 3rd mammary fat pad of the mice, and then mice were randomly assigned into control and treatment groups (≧6 mice per group). Treatment started when the xenograft mammary tumors reaches a volume of 200 mm^3. […] Mice were monitored daily for general health conditions (body weight, fur coat condition and posture) and toxicity (hair loss, skin rash, abdominal distension). […] Tumor volume was calculated as V=W^2×L/2, where L=longer diameter (mm) and W=width of short diameter (mm). […]
Female nude mice were obtained from MDACC and were used for orthotopic tumor studies at 4 to 6 weeks of age. […] Body weights and tumors volume were measured daily and tumor volume was calculated according to the formula V=0.5×L×W^2, where L=length (mm) and W=width (mm).
Twenty-two female nude mice (8 wks of age) were obtained from MDACC ERC Center. […] Body weights and tumors volume were measured daily and tumor volume calculated using the formula V=0.5×L×W^2, where L=length (mm) and W=width (mm) of xenograft tumors. Signs of toxicity were recorded individually. […]

[5] = tested on: AsPC1; test: MTS cell proliferation assay, AsPC1; format: cell-based, human; conditions: Homo sapiens, ASPC1, 72 h, read-out: IC50 AsPC1 (Table 4)
Procedure, shortened: as §1

[6] = tested on: STAT family, STAT3-dependent genes and JAKs in MDA-MB-231 cells; test: Western blot analysis, MDA-MB-231 cells; format: cell-based, human; conditions: 24 h; Example 3 numbering
Protocol: Blocking STAT3 signaling in many different tumor cells leads to induce growth arrest and apoptosis (Turkson, J. et al., 2000; Bromberg, J., 2002; Zhang, X. et al., 2012).
Western Blot Analysis. Protein levels were determined by Western blot using the previously described methods (Shen, Q. et al., 2008). Total cell lysates were prepared from MDA-MB-231 cells. Protein concentrations were measured using the BCA Protein Assay Reagent (Pierce, Rockford, Ill., USA). Equal amounts of total cellular protein extract (40 μg) were resuspended in denaturing sample loading buffer (0.5 M Tris-HCl, pH 6.8, 10% SDS, 0.1% bromophenol blue, and 20% glycerol), separated by electrophoresis on a 10% polyacrylamide SDS-PAGE gel and then electrophoretically transferred to a nitrocellulose membrane (Thermo Scientific, Ill., USA) at 100 Volts for 1 h at 4° C. The membrane was then incubated in a blocking solution containing 5% non-fat milk and 1% Tween 20 in TBS for 1 h. The membrane was then incubated with antibodies specific for: phospho-STAT3-pY705 (1:3000, Epitomics, #2236-1), STAT3 (1:2000, Cell Signaling, #4904), Caspase-3-cleaved (1:2000, Epitomics, #1476-1), Cyclin D1 (1:10000, Epitomics, #2261-1) and β-actin (1:10000, Sigma, clone AC-15). An anti-rabbit or anti-mouse secondary antibody (Amersham, Piscataway, N.J.) was used at 1:4000 dilution. The Western blotted bands were visualized using ECL procedure according to the manufacturer's instructions (Amersham).

[7] = tested on: MDA-MB-231 xenograft tumors; test: MDA-MB-231 xenograft tumor growth in nude mice; format: in vivo; conditions: oral gavage daily for 14 days

SMILES: O=C(Nc1ccc([N+](=O)[O-])cc1Cl)c1cc(Cl)ccc1O [niclosamide, reference compound]
- pIC50 [1]: 5.76
- colony formation [2]: significant suppression of colony formation
- STAT3 promoter activity at 20 μM, in words [3]: suppressed
- toxicity signs in treated mice [4]: No toxicity signs
- pIC50 [5]: 5.83
- phosphorylated STAT3 at Tyr-705 (Example 3) [6]: suppressed
- total STAT3 level (Example 3) [6]: reduced
- reduction in tumor growth, 75 mg/kg [7]: 55%
